What all share (format): cell-based
The subject of assay [1] is SH-SY5Y cells. The assay can be described thus: 568-Tf endocytosis by ICC in Tet-on inducible α-Syn SH-SY5Y cells. As to conditions: doxycycline 72 hours; cells not induced set at 100%.
A further assay relates to α-Syn. The assay can be described thus: α-Syn expression by qPCR in Tet-on inducible SH-SY5Y cells. As to conditions: with versus without doxycycline for 72 hours. The method, then:
FIGS. 4A-4J include micrographs and graphs showing that α-Syn effect to elongate axons and collaterals is mediated through PI4,5P2. (4A) PI4,5P2 levels determined by FACS, in HEK 293T cells, following 48 hours from cell transfection with α-Syn and/or Sj-1 phosphatase, as indicated. Mean±SD of two independent experiments, n>3,000 cells in each treatment; P<0.05, one-way ANOVA. (4B) PI4,5P2 levels determined by FACS in HEK 293T cells transfected with α-Syn and/or PIPKIγ as indicated. Mean±SD of two independent experiments, n>3,000 cells in each treatment; P<0.05, one-way ANOVA. […] GFP signal was captured by direct fluorescence. […] (4E) Total length of collaterals per axon (in μm); and (4F) PI4,5P2 levels within the axon and its collaterals (per axon area) quantified by Fiji program. […] Western blot showing mCherry Nir2 signal detected with anti Nir2 ab (Abcam). PI4,5P2 levels determined by FACS. […] PI4,5P2 levels determined by FACS. […] (4I) Quantitative PCR (qPCR) detection of α-Syn following its induced expression in SH-SYSY cells without and with the addition of doxycycline for 72 hours. α-Syn mRNA levels normalized to the levels of G6PD gene detected in the same sample. (4J) Quantitative detection of NIR2 expression by qPCR in these cells. […]

Assay [2] has as its system SH-SY5Y cells. The assay can be described thus: PI4,5P2 levels by FACS in Tet-on inducible α-Syn SH-SY5Y cells. The method, then: Analysis was performed as previously described with some modifications. Cells were suspended and washed in clear DMEM; followed by 20 minutes fixation in 2% (v/w) paraformaldehyde at 4° C.; and permeabilization in 0.2% saponin in 1% BSA (w/v) for 15 minutes at 4° C. Cells were then incubated with anti α-Syn antibody (MJFR1, 1:2,000) and anti PI4,5P2 antibody (1:200, see Table 2) for 90 minutes at 4° C. with gentle rolling; washed and probed with the respective secondary antibody for 30 minutes at room temperature. FACS analysis in SK-mel2 cells was performed 7-14 days following viral transduction. During this time effective α-Syn knockdown was confirmed using rt-PCR and Western blotting. HEK 293T cells were analyzed by FACS forty-eight hours from transfection. Analyses were performed using BD LSRFortessa Cell Analyzer, equipped with 5 lasers (355, 405, 488, 561 and 640 nm) and the FLOWJO, LLC software. Mock-GFP, Sj-1 or PIPKIγ expression were directly detected at 488 nm based on a GFP-tag. […] A total of 2,000-4,000 gated cells were counted in each experiment unless indicated differently.
To test the mechanism through which α-Syn increases cellular PI4,5P2 levels, the inventors tested the potential involvement of Nir2-expression. […] 72 hours post DNA transfection, PI4,5P2 levels were determined by FACS. […] PI4,5P2 levels were determined by FACS following 3 days of incubation with doxycycline. […]
(In general: A flow cytometer gives signals particle by particle.)

Structures are written as SMILES.

`C[C@H]1c2cccc(O)c2C(=O)C2=C(O)[C@]3(O)C(=O)C(C(N)=O)=C(O)[C@@H](N(C)C)[C@@H]3[C@@H](O)[C@@H]21` [doxycycline]: in the assay on SH-SY5Y cells [1], the “internalization of 568-Tf” value worked out at 133%. In the assay on α-Syn, the “α-Syn levels of expression” value is on record as around 25 folds. In addition, the “PI4,5P2 signal” value with SH-SY5Y cells [2] (FACS after 3 days of doxycycline, shCntrl cells) is given as around 146%. For the same compound, in the assay on SH-SY5Y cells [2] (doxycycline 72 hours, cells not induced set at 100%), the “PI4,5P2 levels” value is 151%.

The values above are taken from patent publication US20230288433A1, “DETECTION OF PHOSPHOINOSITIDES IN BLOOD CELLS AS A BIOMARKER FOR ALPHA SYNUCLEIN ASSOCIATED PATHOLOGIES AND A METHOD OF TREATMENT OF PARKINSON'S DISEASE AND THE RELATED NEURODEGENERATIONS” (YISSUM RESEARCH DEVELOPMENT COMPANY OF THE HEBREW …, priority 2021, published 2023).
